Measurements from patent publication US20250000888A1, “METHODS OF TREATING MYELODYSPLASTIC SYNDROMES WITH DECITABINE AND CEDAZURIDINE” (priority 2021, published 2025).
Read-outs that look alike come from different tables or passages of the source.

Legend:
[1] = test system: intermediate or high-risk MDS patients age 60 or older; details: low-dose decitabine IV; BSC 8.5; cited from earlier work
MDS patients [2] = details: intention-to-treat; 15 mg/m^2 IV over 3 hours, every 8 hours for 3 days; BSC 14.9; cited from earlier work
MDS patients [3] = details: cited from earlier work; for Median survival: previous reports in clinical trials; for Overall response rate: reported in clinical studies
[4] = test system: LINE-1 (long interspersed nuclear element-1) methylation; experiment: Phase 3 trial pharmacodynamics: DNA demethylation by % LINE-1 methylation analysis; format: in vivo, human
[5] = Phase 3 randomized crossover trial: decitabine total exposure over 5 days (AUC) and plasma pharmacokinetics; format: in vivo, human; details: for AUC(0-t): human, plasma, intravenous, 20 mg/m^2/d, read-out: 5-Day Decitabine AUC0-24 LSM
From the text: A total of 118 patients was planned for this analysis to provide 90% power at the statistical significance level of 0.05, presuming the true ratio of geometric means is 1.0, the intrapatient coefficient of variation (CV) on an unlogged scale is 0.55, and the 90% confidence interval (CI) equivalence limits for the ratio of geometric means are 0.8 and 1.25. Assuming that 10% of patients would not be evaluable, 132 patients were planned to be randomized.
At least one of either day 1 or 5 decitabine AUC0-24 measurement during the IV decitabine cycle was required to be evaluable. […] Descriptive statistics were calculated for pharmacokinetic values.
Effects of the sequence and cycle were evaluated.

[6] = test system: patients with MDS or CMML
Description: Each treatment was given for the first 5 consecutive days of a 28-day cycle. […] Consistent with standard clinical care with parenteral DNMTi, cycles could be delayed or doses reduced if judged necessary for hematologic or nonhematologic recovery.
Efficacy and safety endpoints were calculated using all data through final cutoff.

patients with MDS = details: BSC arm 12; cited from earlier work

## Nc1ncn([C@H]2C[C@H](O)[C@@H](CO)O2)c(=O)n1 [IV decitabine, 5-aza-2′-deoxycytidine]
[1]
  Overall survival (OS): 10.1 months
MDS patients [2]
  Median survival: 14.0 months
MDS patients [3]
  Median survival: 14.0-19.4 months
  Overall response rate: 32%
[4]; Cycle 1
  Max. % LINE-1 Demethylation LSM: 14.019%
[4]; Cycle 2
  Max. % LINE-1 Demethylation LSM: 11.968%
[5]; FIG. 2A
  Peak concentrations, IV vs oral administration: higher after IV vs oral
[5]; after oral and IV therapy, except day 5 IV
  Time at which peak decitabine plasma concentrations were detected: 1 h
[5]; day 5 after IV treatment
  Time at which peak decitabine plasma concentrations were attained: 30 min
[5]; Primary endpoint, paired, cycles 1 and 2
  AUC(0-t): 865 ng·h/mL
[5]; Sensitivity, paired, includes data excluded from primary endpoint
  AUC(0-t): 870 ng·h/mL
[5]; Sensitivity, unpaired
  AUC(0-t): 866 ng·h/mL
[5]; in most patients
  Time plasma concentrations remained above the lower limit of quantification: up to 4 hours
[6]; Cycles 1 and 2
  Grade ≥3 TEAE Anemia, %: (32) %
  Grade ≥3 TEAE Febrile neutropenia, %: (7) %
  Grade ≥3 TEAE Leukopenia, %: (14) %
  Grade ≥3 TEAE Neutropenia, %: (29) %
  Grade ≥3 TEAE Pneumonia, %: (5) %
  Grade ≥3 TEAE Thrombocytopenia, %: (32) %
  ≥1 Grade ≥3 TEAE regardless of relation to treatment, %: (67) %
  ≥1 TEAE regardless of relation to treatment, %: 96%
[6]; Cycles 1 and 2, any grade
  TEAE Anemia, %: (36) %
  TEAE Constipation, %: (20) %
  TEAE Decreased appetite, %: (5) %
  TEAE Diarrhea, %: (11) %
  TEAE Dyspnea, %: (10) %
  TEAE Fatigue, %: (17) %
  TEAE Febrile neutropenia, %: (7) %
  TEAE Headache, %: (14) %
  TEAE Nausea, %: (17) %
  TEAE Neutropenia, %: (34) %
  TEAE Thrombocytopenia, %: (39) %
[6]; Cycles 1 and 2, listed as IV Decitabine
  ≥1 TEAE regardless of relation to treatment, %: (96) %
[6]; first 2 cycles, one AE reassigned to IV decitabine given in cycle 1
  Treatment-related serious AE rate, recalculated: 4%
[6]; first 2 treatment cycles
  Patients reporting ≥1 treatment-related serious AE: 3%
  Treatment discontinuation due to an AE: 1 patient
[6]; of 11 fatal serious AEs, oral: sepsis and pneumonia, IV: septic shock, pneumonia
  Deaths deemed related to study medication: three

## Nc1ncn([C@@H]2O[C@H](CO)[C@@H](O)[C@H]2O)c(=O)n1 [azacitidine, 5-azacytidine]
Patients with MDS
  Median time to leukemic transformation or death: 21 months
MDS patients [3]
  Median survival: 12.0-24.5 months
  Overall response rate: 44%-60%
